According to patent US9532945B2, “Oral dosage forms including an antiplatelet agent and an enterically coated acid inhibitor” (KG ACQUISITION LLC, priority 2006, dated 2017):

Tests used:
[1] = Excipient compatibility study: physical appearance; format: physicochemical; parameters: key: T: Off white powder with pellets; V: Off white powder with white pellets; W: Off white powder with off white pellets; X: Off white powder without pellets; Y: Off white powder with pellets and shells; Z: Sticky off white powder with grey pellets; S: Off white powder with blue pellets; R: Off white powder with grey pellets; Q: Off white powder with brown pellets; P: Brownish sticky powder with gray pellets; Off white powder with sticking brown pellets; N: Brownish sticky powder with blue pellets; M: Slight yellow powder with grey pellets; Light brownish sticky powder with off white pellets; K: Slight yellow agglutinate; J: Sticky off white powder with off white pellets; I: Capsule shells with white pellets and off white powder; H: Capsule shells with yellowish pellets and off white powder; details: stored at 40° C./75% RH
Description: In addition to the excipients used in the commercial formulation, some commonly used excipients were also tested. […] Samples were stored also at 25° C./60% RH to be tested only if the stress sample failed. […] The development work explored the compatibility of both APIs together with each of the proposed excipients individually in different ratios depending on the function of the excipient at different temperature and humidity conditions. The selected excipients were mixed with the APIs in different ratios depending on the excipient functionality (Table 5). In addition, samples of pure APIs and excipients were prepared and provided as reference and control respectively.

[2] = at a pH greater than about 4; cited from earlier work

Physical Appearance ([1]; 1 week) | Physical Appearance ([1]; 2 weeks) | Physical Appearance ([1]; 4 weeks) | Physical Appearance ([1]; 6 weeks) | Physical Appearance ([1]; 8 weeks) | Physical Appearance ([1]; 12 weeks) | Physical Appearance ([1]; Initial) | SMILES | solubility [2]
X | X | X | X | X | X | X | COC(=O)[C@H](c1ccccc1Cl)N1CCc2sccc2C1 [Clopidogrel Bisulfate] | –
– | – | – | – | – | – | – | COC(=O)[C@H](c1ccccc1Cl)N1CCc2sccc2C1 [clopidogrel] | reduced solubility
